Source: the supplement of paper PMC10307832

Key:
Test in all cases: relative viability (nuclei count vs DMSO), 5 days (fraction); higher = more cells survive
[1] = compound: COc1cc(Nc2c(C#N)cnc3cc(OCCCN4CCN(C)CC4)c(OC)cc23)c(Cl)cc1Cl [Bosutinib] + COc1cc2c(Oc3ccc(NC(=O)C4(C(=O)Nc5ccc(F)cc5)CC4)cc3F)ccnc2cc1OCCCN1CCOCC1 [Foretinib] (partner 0.25 µM)
Summary of the method: (§1)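 Relative viability divides the nuclei count in treated wells by that in vehicle wells. Lung cancer cell lines were seeded in 1536-well plates, dosed by pin tool the next day, and fixed and stained after 5 days in one step with final 0.05% Triton X-100, 1% formaldehyde and 1 ug/ml Hoechst. Dosing was a single drug or a fixed anchor-drug dose plus five library-drug doses (not always all listed) in √10 steps, and values are medians of duplicate plates imaged at 4×.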

[2] = compound: COc1cc(Nc2c(C#N)cnc3cc(OCCCN4CCN(C)CC4)c(OC)cc23)c(Cl)cc1Cl [Bosutinib] + CS(=O)(=O)CCNCc1ccc(-c2ccc3ncnc(Nc4ccc(OCc5cccc(F)c5)c(Cl)c4)c3c2)o1 [Lapatinib] (partner 2 µM)
Summary of the method: as §1

[3] = compound: COc1cc(Nc2c(C#N)cnc3cc(OCCCN4CCN(C)CC4)c(OC)cc23)c(Cl)cc1Cl [Bosutinib] + Cc1nc(Nc2ncc(C(=O)Nc3c(C)cccc3Cl)s2)cc(N2CCN(CCO)CC2)n1 [Dasatinib] (partner 0.075 µM)
Summary of the method: as §1

[4] = compound: COc1cc(Nc2c(C#N)cnc3cc(OCCCN4CCN(C)CC4)c(OC)cc23)c(Cl)cc1Cl [Bosutinib] + CC1(C)CCC(c2ccc(Cl)cc2)=C(CN2CCN(c3ccc(C(=O)NS(=O)(=O)c4ccc(N[C@H](CCN5CCOCC5)CSc5ccccc5)c(S(=O)(=O)C(F)(F)F)c4)cc3)CC2)C1 [Navitoclax] (partner 0.5 µM)
Summary of the method: as §1

[5] = compound: COc1cc(Nc2c(C#N)cnc3cc(OCCCN4CCN(C)CC4)c(OC)cc23)c(Cl)cc1Cl [Bosutinib] + CC(=O)Nc1cccc(-n2c(=O)n(C3CC3)c(=O)c3c(Nc4ccc(I)cc4F)n(C)c(=O)c(C)c32)c1 [Trametinib] (partner 0.02 µM)
Summary of the method: as §1

## NCI-H2009
[1]; first compound 0.01 µM
  relative viability: 1.22
[1]; first compound 0.03162 µM
  relative viability: 1.24
[1]; first compound 0.1 µM
  relative viability: 1.2
[1]; first compound 1 µM
  relative viability: 0.857
[2]; first compound 0.01 µM
  relative viability: 0.905
[2]; first compound 0.03162 µM
  relative viability: 1.02
[2]; first compound 0.1 µM
  relative viability: 1.05
[2]; first compound 1 µM
  relative viability: 0.716
[3]; first compound 0.01 µM
  relative viability: 0.41
[3]; first compound 0.03162 µM
  relative viability: 0.362
[3]; first compound 0.1 µM
  relative viability: 0.416
[3]; first compound 1 µM
  relative viability: 0.344
[4]; first compound 0.01 µM
  relative viability: 1.22
[4]; first compound 0.03162 µM
  relative viability: 1.2
[4]; first compound 0.1 µM
  relative viability: 1.21
[4]; first compound 1 µM
  relative viability: 1.08
[5]; first compound 0.01 µM
  relative viability: 0.276
[5]; first compound 0.03162 µM
  relative viability: 0.344
[5]; first compound 0.1 µM
  relative viability: 0.27
[5]; first compound 1 µM
  relative viability: 0.166

## NCI-H2023
[1]; first compound 0.01 µM
  relative viability: 0.874
[1]; first compound 0.03162 µM
  relative viability: 0.921
[1]; first compound 0.1 µM
  relative viability: 0.81
[1]; first compound 1 µM
  relative viability: 0.498
[2]; first compound 0.01 µM
  relative viability: 0.967
[2]; first compound 0.03162 µM
  relative viability: 0.819
[2]; first compound 0.1 µM
  relative viability: 0.787
[2]; first compound 1 µM
  relative viability: 0.793
[3]; first compound 0.01 µM
  relative viability: 0.683
[3]; first compound 0.03162 µM
  relative viability: 0.599
[3]; first compound 0.1 µM
  relative viability: 0.65
[3]; first compound 1 µM
  relative viability: 0.583
[4]; first compound 0.01 µM
  relative viability: 1
[4]; first compound 0.03162 µM
  relative viability: 1.01
[4]; first compound 0.1 µM
  relative viability: 1.03
[4]; first compound 1 µM
  relative viability: 0.92
[5]; first compound 0.01 µM
  relative viability: 0.647
[5]; first compound 0.03162 µM
  relative viability: 0.474
[5]; first compound 0.1 µM
  relative viability: 0.537
[5]; first compound 1 µM
  relative viability: 0.434

## NCI-H2085
[1]; first compound 0.01 µM
  relative viability: 0.949
[1]; first compound 0.03162 µM
  relative viability: 0.983
[1]; first compound 0.1 µM
  relative viability: 0.806
[1]; first compound 1 µM
  relative viability: 0.935
[2]; first compound 0.01 µM
  relative viability: 0.749
[2]; first compound 0.03162 µM
  relative viability: 0.747
[2]; first compound 0.1 µM
  relative viability: 0.813
[2]; first compound 1 µM
  relative viability: 0.744
[3]; first compound 0.01 µM
  relative viability: 0.264
[3]; first compound 0.03162 µM
  relative viability: 0.219
[3]; first compound 0.1 µM
  relative viability: 0.329
[3]; first compound 1 µM
  relative viability: 0.398
[4]; first compound 0.01 µM
  relative viability: 1.14
[4]; first compound 0.03162 µM
  relative viability: 1.13
[4]; first compound 0.1 µM
  relative viability: 1.11
[4]; first compound 1 µM
  relative viability: 1.2
[5]; first compound 0.01 µM
  relative viability: 0.564
[5]; first compound 0.03162 µM
  relative viability: 0.467
[5]; first compound 0.1 µM
  relative viability: 0.54
[5]; first compound 1 µM
  relative viability: 0.5

## NCI-H2087
[1]; first compound 0.01 µM
  relative viability: 1.02
[1]; first compound 0.03162 µM
  relative viability: 1.02
[1]; first compound 0.1 µM
  relative viability: 1.17
[1]; first compound 1 µM
  relative viability: 1.1
[2]; first compound 0.01 µM
  relative viability: 0.956
[2]; first compound 0.03162 µM
  relative viability: 1.07
[2]; first compound 0.1 µM
  relative viability: 1.1
[2]; first compound 1 µM
  relative viability: 1.09
[3]; first compound 0.01 µM
  relative viability: 0.871
[3]; first compound 0.03162 µM
  relative viability: 0.848
[3]; first compound 0.1 µM
  relative viability: 0.913
[3]; first compound 1 µM
  relative viability: 0.848
[4]; first compound 0.01 µM
  relative viability: 0.905
[4]; first compound 0.03162 µM
  relative viability: 0.926
[4]; first compound 0.1 µM
  relative viability: 0.972
[4]; first compound 1 µM
  relative viability: 1.04
[5]; first compound 0.01 µM
  relative viability: 0.156
[5]; first compound 0.03162 µM
  relative viability: 0.218
[5]; first compound 0.1 µM
  relative viability: 0.228
[5]; first compound 1 µM
  relative viability: 0.223

## NCI-H2126
[1]; first compound 0.01 µM
  relative viability: 1.08
[1]; first compound 0.03162 µM
  relative viability: 1.12
[1]; first compound 0.1 µM
  relative viability: 1.25
[1]; first compound 1 µM
  relative viability: 1.14
[2]; first compound 0.01 µM
  relative viability: 0.742
[2]; first compound 0.03162 µM
  relative viability: 0.718
[2]; first compound 0.1 µM
  relative viability: 0.724
[2]; first compound 1 µM
  relative viability: 0.701
[3]; first compound 0.01 µM
  relative viability: 0.583
[3]; first compound 0.03162 µM
  relative viability: 0.571
[3]; first compound 0.1 µM
  relative viability: 0.594
[3]; first compound 1 µM
  relative viability: 0.62
[4]; first compound 0.01 µM
  relative viability: 0.797
[4]; first compound 0.03162 µM
  relative viability: 0.904
[4]; first compound 0.1 µM
  relative viability: 0.85
[4]; first compound 1 µM
  relative viability: 0.776
[5]; first compound 0.01 µM
  relative viability: 0.528
[5]; first compound 0.03162 µM
  relative viability: 0.546
[5]; first compound 0.1 µM
  relative viability: 0.559
[5]; first compound 1 µM
  relative viability: 0.536

## NCI-H2170
[1]; first compound 0.01 µM
  relative viability: 0.959
[1]; first compound 0.03162 µM
  relative viability: 1
[1]; first compound 0.1 µM
  relative viability: 1.01
[1]; first compound 1 µM
  relative viability: 0.962
[2]; first compound 0.01 µM
  relative viability: 0.268
[2]; first compound 0.03162 µM
  relative viability: 0.268
[2]; first compound 0.1 µM
  relative viability: 0.282
[2]; first compound 1 µM
  relative viability: 0.282
[3]; first compound 0.01 µM
  relative viability: 0.559
[3]; first compound 0.03162 µM
  relative viability: 0.583
[3]; first compound 0.1 µM
  relative viability: 0.556
[3]; first compound 1 µM
  relative viability: 0.608
[4]; first compound 0.01 µM
  relative viability: 0.527
[4]; first compound 0.03162 µM
  relative viability: 0.67
[4]; first compound 0.1 µM
  relative viability: 0.702
[4]; first compound 1 µM
  relative viability: 0.468
[5]; first compound 0.01 µM
  relative viability: 0.93
[5]; first compound 0.03162 µM
  relative viability: 0.896
[5]; first compound 0.1 µM
  relative viability: 0.948
[5]; first compound 1 µM
  relative viability: 0.946

## NCI-H2228
[1]; first compound 0.01 µM
  relative viability: 0.762
[1]; first compound 0.03162 µM
  relative viability: 0.931
[1]; first compound 0.1 µM
  relative viability: 0.887
[1]; first compound 1 µM
  relative viability: 0.744
[2]; first compound 0.01 µM
  relative viability: 1.19
[2]; first compound 0.1 µM
  relative viability: 1.18
[2]; first compound 1 µM
  relative viability: 1.04
[3]; first compound 0.01 µM
  relative viability: 0.494
[3]; first compound 0.03162 µM
  relative viability: 0.474
[3]; first compound 0.1 µM
  relative viability: 0.56
[3]; first compound 1 µM
  relative viability: 0.62
[4]; first compound 0.01 µM
  relative viability: 0.84
[4]; first compound 0.1 µM
  relative viability: 1.03
[4]; first compound 1 µM
  relative viability: 0.732
[5]; first compound 0.01 µM
  relative viability: 0.54
[5]; first compound 0.03162 µM
  relative viability: 0.599
[5]; first compound 0.1 µM
  relative viability: 0.494
[5]; first compound 1 µM
  relative viability: 0.355

## NCI-H2347
[1]; first compound 0.01 µM
  relative viability: 0.929
[1]; first compound 0.03162 µM
  relative viability: 0.878
[1]; first compound 0.1 µM
  relative viability: 0.988
[1]; first compound 1 µM
  relative viability: 0.885
[2]; first compound 0.01 µM
  relative viability: 0.923
[2]; first compound 0.03162 µM
  relative viability: 1.05
[2]; first compound 0.1 µM
  relative viability: 0.911
[2]; first compound 1 µM
  relative viability: 0.989
[3]; first compound 0.01 µM
  relative viability: 0.296
[3]; first compound 0.03162 µM
  relative viability: 0.324
[3]; first compound 0.1 µM
  relative viability: 0.314
[3]; first compound 1 µM
  relative viability: 0.258
[4]; first compound 0.01 µM
  relative viability: 0.797
[4]; first compound 0.03162 µM
  relative viability: 0.793
[4]; first compound 0.1 µM
  relative viability: 0.752
[4]; first compound 1 µM
  relative viability: 0.781
[5]; first compound 0.01 µM
  relative viability: 0.309
[5]; first compound 0.03162 µM
  relative viability: 0.27
[5]; first compound 0.1 µM
  relative viability: 0.297
[5]; first compound 1 µM
  relative viability: 0.307
